Experimental findings from BindingDB's records for doi:10.3109/14756366.2012.753591 (Gyeongsang National University, 2014) are described below.

The target in one assay is Replicase polyprotein 1a (Severe acute respiratory syndrome coronavirus, UniProt P0C6U8). Put plainly: SARS-CoV PLpro Inhibition Assay. The conditions noted are these: pH 8. Here is the method:
(§1) Reactions were performed in a total volume of […], which contained thefollowing components: 20mM Tris-buffer, pH 8.0, 10mM DTT, […], 2% DMSO and varying concentrations of inhibitor ([…]). Assays were initiated with the addition of PLpro to produce a final enzyme concentration of 60 nM.

Assay [1] addresses Replicase polyprotein 1a/Z-RLRGG-AMC (Severe acute respiratory syndrome coronavirus, UniProt P0C6U8). Put plainly: SARS-CoV PLpro Inhibition Assay. As to conditions: pH 8. As to the method:
as §1

Usually IC50 stands for the point on the concentration scale where inhibition reaches its midpoint. By Ki is commonly meant the dissociation constant of the complex between target and ligand, obtained from inhibition or displacement. Read a low Ki as higher affinity. `CC(C)=CCc1cc(-c2coc3cc(O)ccc3c2=O)ccc1O` [Neobavaisoflavone (2)]: at Replicase polyprotein 1a, the IC50 is 18.3 µM and the inhibition constant (Ki) worked out at 9.4 µM.

As for `O=c1ccc2cc3ccoc3cc2o1` [7H-furo[3,2-g]chromen-7-one], the half-inhibitory concentration (IC50) on Replicase polyprotein 1a was over 150 µM.

With `CC(C)=CCc1c(O)ccc(C(=O)/C=C/c2ccc(O)cc2)c1O` [Isobacachalcone], the Ki in assay [1] was found to be 9.1 µM. In addition, on Replicase polyprotein 1a, the IC50 amounted to 7.3 µM and the inhibitory constant (Ki) was 4.9 µM.

Turning to `COc1cc(O)c(C(=O)/C=C/c2ccc(O)cc2)cc1CC=C(C)C` [4'-O-methylbavachalcone (4)], at Replicase polyprotein 1a, the IC50 was 10.1 µM and affinity was put at a Ki of 4.6 µM.

Turning to `COc1cc2c(cc1CC=C(C)C)C(=O)CC(c1ccc(O)cc1)O2` (stereo unspecified) [Bavachinin (1)], on Replicase polyprotein 1a, the concentration for half-maximal inhibition (IC50) was determined as 38.4 µM and the affinity corresponds to a Ki of 18.4 µM.

On to `CC(C)=CCc1cc2c(cc1O)oc(=O)c1c3ccc(O)cc3oc21` [Psoralidin (5)], for which the inhibition constant (Ki) in assay [1] amounted to 4.2 µM; at Replicase polyprotein 1a, 1.7 µM. 4.2 µM corresponded to half-maximal inhibition at Replicase polyprotein 1a (IC50).

`O=c1ccc2ccc3occc3c2o1` [2H-furo[2,3-h]chromen-2-one] returned a concentration for half-maximal inhibition (IC50) against Replicase polyprotein 1a of over 150 µM.

On Replicase polyprotein 1a, `CC(C)=CCC/C(C)=C\Cc1cc(-c2coc3cc(O)ccc3c2=O)ccc1O` [Corylifol A (6)] came in with an IC50 of 32.3 µM and a Ki of 11.4 µM.
